Results from PMC6212553, “Baicalein Enhances the Oral Bioavailability and Hepatoprotective Effects of Silybin Through the Inhibition of Efflux Transporters BCRP and MRP2” (Frontiers in Pharmacology, 2018).

What was measured:
[1] = Bidirectional transport of silybin across Caco-2 cell monolayers; format: in vitro ADME, Human; conditions: human; Caco-2, silybin 2.5, 5 and 10 μM, with baicalein 5 μM
Procedure: Human colon epithelial cell line (Caco-2) was purchased from American Type Culture Collection (Manassas, VA, United States) and frozen at -80°C. Wild type MDCK II, MDR1-MDCK II, BCRP-MDCK II, and MRP2-MDCK II cells were kindly supplied by the Netherlands Cancer Institute (Amsterdam, Netherlands). Transport study was carried out with Caco-2 cells, and MDCK II cells were transfected using a previously established method with slight modifications ([Yuan et al., 2017]). The Caco-2 cells were cultured at 37°C/5% CO2 in Dulbecco's modified Eagle's medium (DMEM) supplemented with 10% fetal bovine serum, 1% nonessential amino acids, and 1% penicillin-streptomycin. The Caco-2 cells were seeded onto polyester filter membranes in a 12-well Transwell® plate (Corning Costar Co., NY, United States) with 0.6 × 10^5 cells/cm^2. The monolayer cells were used for transport assays between 21 and 23 days. The MDCKII cells were seeded on transwell plates with a density of 2.0 × 10^5 cells/cm^2 and grown for 4-5 days to form a confluent monolayer. Bidirectional transport assays for Caco-2 and MDCK II cells were performed by adding silybin (10 μM) in assay buffer into either the apical (AP; A-to-B) or basolateral (BL; […] For inhibition studies, Caco-2 or MDCK II cell monolayers in both apical and basolateral chambers were preincubated with the inhibitor for 30 min. The fluorescence intensity of the sample collected from the AP or BL side was immediately detected in a 96-well black plate by the Microplate UV/VIS spectrophotometer (TECAN Infinite […], Männedorf, Switzerland). For liquid chromatography tandem-mass spectrometry (LC-MS/MS) analysis, the sample (100 μl) was mixed with methanol (50 μl) containing internal standard (25 ng/ml) and was stored at -80°C. The formula for calculating apparent permeability coefficient (Papp) values is as follows: (1) […] where dQ/dt (mM/s) represents the rate of permeation of the drug across the cells, C0 (mM) refers to the concentration in the donor compartment at time zero calculated from dosing solution, and A (cm^2) refers to the area of the cell monolayer. Papp (B-A) is the Papp value measured in the B to A direction, and Papp (A-B) is the Papp value measured in the A to B direction. The efflux ratio is given as ER = Papp (B to A)/Papp (A to B).

[2] = test system: CCl4-induced liver injury model; assay: CCl4-induced acute liver injury in rats; format: in vivo, SD rats; set-up: Nerosis (histologic score, liver H&E) / Haemorrhage (histologic score, liver H&E) / Inflammation (histologic score, liver H&E) / Steatosis (histologic score, liver H&E): scale not given here
Procedure: Male SD rats were randomly divided into seven groups: […] (2) Group II, given blank vehicle p.o. for 7 days; (3) Group III, treatment with silybin (100 mg/kg bodyweight, p.o.) for 7 days; […] After 24 h of CCl4 treatment, all rats were sacrificed under ether anesthesia. Blood samples were collected from the abdominal aorta for biochemical estimations. The liver was immediately removed and weighed with a large portion of the liver frozen in liquid nitrogen. The pathological liver changes were examined by hematoxylin and eosin (H&E) staining, which was performed by a pathologist who was blinded to this study. The serum levels of ALT, AST, AKP, and SOD as well as the cytokines TNF- α, IL-6, and IL-1β were detected by the assay kit, according to the manufacturer’s instructions.

[3] = set-up: method as in Wen et al., 2008; conditions: after oral administration; ref Wen et al., 2008; cited from earlier work
[4] = set-up: method as in Pradhan and Girish, 2006; conditions: doses <10 g/d; ref Pradhan and Girish, 2006; cited from earlier work
[5] = 100 mg/kg p.o. 7 days, single agent, CCl4 on day 7
[6] = silybin 100 mg/kg for 7 consecutive days, P < 0.01

COc1cc(C2Oc3cc([C@H]4Oc5cc(O)cc(O)c5C(=O)[C@@H]4O)ccc3OC2CO)ccc1O (some centres unmarked) [silybin, Silybin]
efflux ratio at 180 min [1]: ~2 | Haemorrhage (histologic score, liver H&E) [2, 5]: 2.2±0.8 | Inflammation (histologic score, liver H&E) [2, 5]: 2.0±0.6 | Nerosis (histologic score, liver H&E) [2, 5]: 2.7±0.5 | Steatosis (histologic score, liver H&E) [2, 5]: 2.2±0.8 | CCl4-induced increase of liver weight and ratio of liver to body weight ([2]; p.o. 7 days before CCl4, p < 0.01): abrogated | CCl4-induced increase in serum IL-1β, IL-6, and TNF-α levels [2, 6]: significantly prevented | CCl4-induced increase in the serum activities of ALT, AST, and AKP [2, 6]: significantly prevented | glucuronide conjugated silybin [3]: 55% | sulfate conjugated silybin [3]: 28% | side effects [4]: no significant side effects
